Series [1] can be described thus: Hygroscopicity: standing at controlled temperature and relative humidity. Format: physicochemical. The protocol:
dCP4U.4Na crystals (decahydrate) having a water content of approximately 17.4% were allowed to stand for two days under the following conditions a), b) and c): a) 25° C. and a relative humidity of 57%; b) 25° C. and a relative humidity of 75%; c) 25° C. and a relative humidity of 93%. […] The crystals have proven to be stable and to have no hygroscopicity. In addition, the same crystals were allowed to stand for seven days under the following severe conditions d): d) 40° C. and a relative humidity of 75%.

The nature of series [2]: Stability: acceleration test, sealed bottles stored at 60° C. It is filed as physicochemical. Conditions: sealed bottle, 13 days at 60° C. (acceleration test). On the procedure:
dCP4U.4Na crystals (decahydrate) and a freeze-dried product were individually placed in bottles, which were then sealed and stored for 13 days at 60° C. (acceleration test).

The mark [3] stands for this setting: two days, 25° C., relative humidity 75%.
[4] abbreviates: two days, 25° C., relative humidity 93%.

As to `Nc1ccn([C@H]2CC(O)[C@@H](COP(=O)(O)OP(=O)(O)OP(=O)(O)OP(=O)(O)OC[C@H]3O[C@@H](n4ccc(=O)[nH]c4=O)C(O)C3O)O2)c(=O)n1` (stereo partly drawn) [freeze-dried product, p^1-(2′-deoxycytidine 5′-)P^4-(uridine 5′-)tetraphosphate, reference compound], the “decomposition or change in weight / state on standing (hygroscopicity)” value in series [1] (setting [3]) and in series [1] (setting [4]) was “assumed a mud-like state due to gradual increase in water content” in each case. Further, in series [2], the decomposition on storage entry was “partially decomposed”. Also, the “purity loss on storage” value in series [2] is “approximately 2.2%”.
Consider `Nc1ccn([C@H]2CC(O)[C@@H](COP(=O)(O)OP(=O)(O)OP(=O)(O)OP(=O)(O)OC[C@H]3O[C@@H](n4ccc(=O)[nH]c4=O)C(O)C3O)O2)c(=O)n1` (stereo partly drawn) [dCP4U.4Na crystals (decahydrate), p^1-(2′-deoxycytidine 5′-)P^4-(uridine 5′-)tetraphosphate], for which the “change on standing under severe conditions” value in series [1] (seven days, 40° C., relative humidity 75%) is listed as “No change was observed”. For the same molecule, the “decomposition or change in weight on standing (hygroscopicity)” value in series [1] (two days, 25° C., relative humidity 57%) is “No decomposition or change in weight was observed”. Further, the “decomposition or change in weight / state on standing (hygroscopicity)” value in series [1] (setting [3]) and in series [1] (setting [4]) was “No decomposition or change in weight was observed” in each case. Besides, the decomposition on storage result in series [2] was “No decomposition”.

The record behind these values is patent US6617444B1, “Dinucleotide tetraphosphate crystals” (Yamasa Corporation, priority 1999, dated 2003).
